Target: GAT1 (Homo sapiens, UniProt P30531)
Format: cell-based

GAT1, sequence (P30531 whole entry): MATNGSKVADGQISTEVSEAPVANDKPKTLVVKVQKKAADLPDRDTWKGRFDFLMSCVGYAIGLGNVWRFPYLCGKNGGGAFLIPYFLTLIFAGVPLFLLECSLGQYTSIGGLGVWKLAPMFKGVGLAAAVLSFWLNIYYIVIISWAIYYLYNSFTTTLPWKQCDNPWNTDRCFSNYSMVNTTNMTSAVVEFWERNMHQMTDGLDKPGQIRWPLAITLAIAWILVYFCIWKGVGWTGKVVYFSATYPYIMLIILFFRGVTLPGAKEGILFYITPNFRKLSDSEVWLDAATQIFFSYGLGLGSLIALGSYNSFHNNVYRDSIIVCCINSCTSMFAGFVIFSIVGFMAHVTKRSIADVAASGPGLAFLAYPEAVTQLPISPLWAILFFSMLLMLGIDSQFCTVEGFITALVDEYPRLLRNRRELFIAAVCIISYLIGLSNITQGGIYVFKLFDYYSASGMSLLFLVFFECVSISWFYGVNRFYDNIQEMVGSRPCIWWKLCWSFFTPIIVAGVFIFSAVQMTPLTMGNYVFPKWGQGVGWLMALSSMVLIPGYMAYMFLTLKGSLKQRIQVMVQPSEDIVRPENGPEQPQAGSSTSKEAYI

In the case of `O=C(O)C1=CCCN(CCON=C(c2ccccc2)c2ccccc2)C1` [NO-711, 1-[2-[[(diphenylmethylene)imino]oxy]ethyl]-1,2,5,6-tetrahydro-3-pyridinecarboxylic acid], the Ki is reported as 0.078 ± 0.012 µM.
